Here are results for 17 molecules from US20240199623A1 (ILDONG PHARMACEUTICAL CO., LTD., priority 2020, published 2024).

In brackets after ≈: the same amount, converted by molar mass.

What is called solubility is the concentration that dissolves in the medium under given conditions.

Data set [1] is described as follows: Phosphate-buffered saline (PBS) solubility of compounds. Format: physicochemical. The note with it: aqueous buffer, thermodynamic from solid, PBS pH 7.5, 0.5 mg/mL, vortexed 90 min, filtered, LC-MS/MS, read-out: Solubility Range. On the procedure: PBS solutions (pH 7.5) were prepared according to the following compositions and stored at 4° C. Test compounds were dissolved in PBS (pH 7.5) at 0.5 mg/mL and vortexed for 90 min. The PBS solution was sequentially filtered through a 0.45, 1.2, […] syringe filter. Concentration of test compounds were determined using LC-MS/MS with appropriate dilution of the samples.

The test system of a further data set is C57BL/6 female mice. Put plainly: Scopolamine induced tear volume reduction model. Particulars: scopolamine-injected mice, ophthalmic solution topically on both eyes 3 times a day, phenol red thread; average if evaluated twice. Format: in vivo, mouse. On the procedure: Seven-week old C57BL/6 female mice were used.
Scopolamine hydrobromide was purchased from Sigma Aldrich (Cat No. S0929), dissolved in saline, and sterilized prior to use.
Zone-Quick phenol red thread was obtained from Menicon.
The test compounds used in this experiment were dissolved in PBS containing 1% of surfactant.
Scopolamine (0.2 ml of 2.5 mg/mL solution) was injected subcutaneously 3 times a day to induce a decrease in the tear volume in the mouse. At the same time, the ophthalmic solution of test compounds or vehicle were topically administered onto both eyes 3 times a day. Tear volume was measured by phenol red thread before dosing (basal level) and 1 hour after the last administration of scopolamine and ophthalmic solution. The results were obtained by measuring the length of the phenol red thread turning red by tears. The schedule of study is expressed as FIG. 1.
If the test compound was evaluated twice, the average value was used.

The target of data set [2] is T1, human wild type-CFTR (Homo sapiens, UniProt P13569). Put plainly: Short-circuit current measurement. It counts as cell-based. Further details: expressed in transfected cells. Particulars: FRT cells expressing human wild type-CFTR; Forskolin 20 μM signal used as 100% activity; read-out: Short-circuit current measurement (EC50) Concentration range. The text has this:
Forskolin (Tocris cat. #1099), CFTRinh-172 (Tocris cat. #3430), amphotericin B (Tocris cat. #6930), dimethyl sulfoxide (Sigma cat. #D4540), EVC4000 Multi-Channel V/I Clamp (World Precision Instruments, Sarasota, FL), PowerLab 4/35 (AD Instruments, Castle Hill, Australia), Labchart Pro 7, GraphPad Prism 5 (GraphPad Software, Inc.). Fisher rat thyroid (FRT) cells expressing human wild type-CFTR were provided by Dr. Alan Verkman (University of California, San Francisco) and grown in DMEM/F12 medium (1:1) supplemented with 10% FBS, 2 mM glutamine, 100 units/ml penicillin and 100 μg/ml streptomycin. Snapwell inserts containing CF TR-expressing FRT cells were mounted in Ussing chambers (Physiologic Instruments, San Diego, CA). […] Forskolin, test compounds, and CFTRinh-172 were added to the apical and basolateral bath solution. Apical membrane current and short-circuit current were measured with an EVC4000 Multi-Channel V/I Clamp (World Precision Instruments, Sarasota, FL) and recorded using PowerLab 4/35 (AD Instruments, Castle Hill, Australia). Data were collected and analyzed with ADInstruments acquisition software Labchart Pro 7 software. The sampling rate was 4 Hz.

The target in data set [3] is T1, human wild type-CFTR. Put plainly: Cell-based YFP assay. Also on record: expressed in transfected cells; host or cells: CHO-K1 (Chinese hamster ovary). The note with it: CHO-K1 cells expressing human wild type-CFTR and YFP-H148Q/I152L; forskolin 20 μM = 100% activity; read-out: Cell-based YFP Assay (EC50) Concentration Range. The gist of the method: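 I⁻-driven YFP fluorescence quenching at 37 °C: 2 s baseline, addition of 140 mM iodide solution, then 14 s of readings at 0.4 s intervals. Cells were CHO-K1 expressing human wild-type CFTR plus YFP-H148Q/I152L. EC50 derived from averaged triplicates.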

T1 sequence (P13569 whole entry): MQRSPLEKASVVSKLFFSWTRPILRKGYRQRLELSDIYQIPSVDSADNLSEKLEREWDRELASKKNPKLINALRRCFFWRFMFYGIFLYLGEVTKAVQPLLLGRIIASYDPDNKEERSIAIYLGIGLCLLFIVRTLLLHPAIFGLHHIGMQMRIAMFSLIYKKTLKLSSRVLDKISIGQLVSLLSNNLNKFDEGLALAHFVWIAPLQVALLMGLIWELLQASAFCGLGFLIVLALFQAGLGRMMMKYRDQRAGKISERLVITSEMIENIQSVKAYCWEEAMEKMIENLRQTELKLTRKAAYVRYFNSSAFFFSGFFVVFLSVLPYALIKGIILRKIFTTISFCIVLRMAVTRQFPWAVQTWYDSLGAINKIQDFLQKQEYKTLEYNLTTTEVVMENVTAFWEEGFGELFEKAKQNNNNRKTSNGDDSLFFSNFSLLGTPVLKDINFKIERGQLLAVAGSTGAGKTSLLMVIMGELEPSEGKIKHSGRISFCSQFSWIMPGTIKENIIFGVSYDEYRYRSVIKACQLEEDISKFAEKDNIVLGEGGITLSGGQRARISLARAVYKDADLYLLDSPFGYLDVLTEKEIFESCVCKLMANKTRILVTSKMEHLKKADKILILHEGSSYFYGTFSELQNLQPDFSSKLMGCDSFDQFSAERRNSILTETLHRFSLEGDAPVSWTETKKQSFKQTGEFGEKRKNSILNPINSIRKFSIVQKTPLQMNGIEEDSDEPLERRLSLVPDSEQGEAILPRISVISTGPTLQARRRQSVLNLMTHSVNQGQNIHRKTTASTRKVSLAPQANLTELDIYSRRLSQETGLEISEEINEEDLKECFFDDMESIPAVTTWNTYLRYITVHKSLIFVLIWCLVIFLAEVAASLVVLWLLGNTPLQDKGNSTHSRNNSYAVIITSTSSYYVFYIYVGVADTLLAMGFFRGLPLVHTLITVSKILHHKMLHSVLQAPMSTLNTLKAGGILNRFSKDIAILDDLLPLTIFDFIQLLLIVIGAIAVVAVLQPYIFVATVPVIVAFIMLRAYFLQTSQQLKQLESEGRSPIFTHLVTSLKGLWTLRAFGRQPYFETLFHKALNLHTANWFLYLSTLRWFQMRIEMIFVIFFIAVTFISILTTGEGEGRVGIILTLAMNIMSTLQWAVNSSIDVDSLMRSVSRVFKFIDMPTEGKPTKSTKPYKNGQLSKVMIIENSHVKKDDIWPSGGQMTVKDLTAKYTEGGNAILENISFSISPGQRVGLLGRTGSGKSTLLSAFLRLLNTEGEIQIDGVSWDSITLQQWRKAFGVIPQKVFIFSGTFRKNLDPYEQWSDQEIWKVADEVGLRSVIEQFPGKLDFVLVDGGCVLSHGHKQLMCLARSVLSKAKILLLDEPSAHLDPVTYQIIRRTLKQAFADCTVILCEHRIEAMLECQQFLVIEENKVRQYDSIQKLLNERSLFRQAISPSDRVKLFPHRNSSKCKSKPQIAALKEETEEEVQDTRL

For `COc1ccc(-c2ccnc3cc(C(=O)Nc4ccc(C(=O)N5CCN(C(C)C)CC5)cc4)nn23)cc1OC` [Compound 159, 7-(3,4-dimethoxyphenyl)-N-(4-(4-isopropylpiperazine-1-carbonyl)phenyl)pyrazolo[1,5-a]pyrimidine-2-carboxamide], the solubility at 90 min in data set [1] was in the range of 0.1 to 10 µg/mL (≈ 0.189 to 18.9 µM). In addition, in the data set on C57BL/6 female mice, the “Ratio of tear volume (test compound to vehicle)” value (“Ratio of tear volume” below) worked out at 2.11. Besides, the EC50 on human wild type-CFTR [2] and on human wild type-CFTR [3] was 200 to 2000 nM each time.
With `COc1ccc(-c2ccnc3cc(C(=O)NC45CCC(C(=O)O)(CC4)CC5)nn23)cc1OC` [Compound 149, 4-(7-(3,4-dimethoxyphenyl)pyrazolo[1,5-a]pyrimidine-2-carboxamido)bicyclo[2.2.2]octane-1-carboxylic acid], the solubility at 90 min in data set [1] was over 10 µg/mL. Also, in the data set with C57BL/6 female mice, the “Ratio of tear volume” value is listed as 1.26. The EC50 on human wild type-CFTR [2] is at least 2000 nM; on human wild type-CFTR [3], 200 to 2000 nM.
In the same order, the values of `COC(=O)C12CC(NC(=O)c3cc4nccc(-c5ccc(OC)c(OC)c5)n4n3)(C1)C2` [Compound 36, methyl 3-(7-(3,4-dimethoxyphenyl)pyrazolo[1,5-a]pyrimidine-2-carboxamido)bicyclo[1.1.1]pentane-1-carboxylate] are 0.1 to 10 µg/mL (≈ 0.237 to 23.7 µM), 1.23, at least 2000 nM and 200 to 2000 nM.
As for `COc1ccc(-c2ccnc3cc(C(=O)Nc4ccc(N5CC=CCC5)cc4)nn23)cc1OC` [Compound 273, N-(4-(3,6-dihydropyridin-1(2H)-yl)phenyl)-7 (3,4-dimethoxyphenyl) pyrazolo[1,5-a]pyrimidine-2-carboxamide], the solubility at 90 min in data set [1] was under 0.1 µg/mL. Further, the “Ratio of tear volume” value with C57BL/6 female mice is 0.80. In addition, on human wild type-CFTR [3], the EC50 was under 200 nM.
Regarding `COc1ccc(-c2ccnc3cc(C(=O)N[C@H]4CC[C@H](O)CC4)nn23)cc1OC` [Compound 69, 7-(3,4-dimethoxyphenyl)-N-((1R,4R)-4-hydroxycyclohexyl)pyrazolo [1,5-a]pyrimidine-2-carboxamide], the solubility at 90 min in data set [1] is over 10 µg/mL. Besides, the “Ratio of tear volume” value in the data set on C57BL/6 female mice was determined as 0.76. Moreover, the values for the EC50 at human wild type-CFTR [2] and on human wild type-CFTR [3] were at least 2000 nM and 200 to 2000 nM, respectively.
Regarding `COc1ccc(-c2ccnc3cc(C(=O)N[C@H]4CC[C@H](C(=O)OCCCN5CCOCC5)CC4)nn23)cc1OC` [Compound 197, 3-morpholinopropyl (1r,4r)-4-(7-(3,4-dimethoxyphenyl)pyrazolo [1,5-a]pyrimidine-2-carboxamido)cyclohexane-1-carboxylate], the “Ratio of tear volume” value in the data set on C57BL/6 female mice amounted to 1.18. The EC50 on human wild type-CFTR [2] and on human wild type-CFTR [3] was 200 to 2000 nM each time.
Consider `COc1ccc(-c2ccnc3cc(C(=O)Nc4ccc(C(=O)OCCCN5CCOCC5)cn4)nn23)cc1OC` [Compound 142, 3-morpholinopropyl 6-(7-(3,4-dimethoxyphenyl)pyrazolo [1,5-a]pyrimidine-2-carboxamido)nicotinate], for which the solubility at 90 min in data set [1] is under 0.1 µg/mL. Further, the EC50 at human wild type-CFTR [2] and at human wild type-CFTR [3] was under 200 nM throughout.
For `COC(=O)c1ccc2c(c1)CCCN2C(=O)c1cc2nccc(-c3ccc(OC)c(OC)c3)n2n1` [Compound 133, methyl 1-(7-(3,4-dimethoxyphenyl)pyrazolo [1,5-a]pyrimidine-2-carbonyl)-1,2,3,4-tetrahydroquinoline-6-carboxylate], in data set [1], the solubility at 90 min is under 0.1 µg/mL. Further, the EC50 on human wild type-CFTR [2] and on human wild type-CFTR [3] was under 200 nM in each case.
As to `CCOC(=O)CNC(=O)c1ccc(NC(=O)c2cc3nccc(-c4ccc(OC)c(OC)c4)n3n2)cc1` [Compound 28, ethyl (4-(7-(3,4-dimethoxyphenyl)pyrazolo [1,5-a]pyrimidine-2-carboxamido)benzoyl)glycinate], the solubility at 90 min in data set [1] is under 0.1 µg/mL. Further, the EC50 on human wild type-CFTR [2] and at human wild type-CFTR [3] was under 200 nM in each case.
Consider `COC(=O)c1ccc2c(c1)CCN2C(=O)c1cc2nccc(-c3ccc(OC)c(OC)c3)n2n1` [Compound 130, methyl 1-(7-(3,4-dimethoxyphenyl)pyrazolo [1,5-a]pyrimidine-2-carbonyl)indoline-5-carboxylate], for which the solubility at 90 min in data set [1] was under 0.1 µg/mL. Also, the figures for the EC50 on human wild type-CFTR [2] and on human wild type-CFTR [3] were 200 to 2000 nM and under 200 nM, respectively.
In the same order, the values of `COc1ccc(-c2ccnc3cc(C(=O)Nc4ccc(C(=O)N[C@H](C(=O)N5CCN(C)CC5)C(C)C)cc4)nn23)cc1OC` [Compound 146, (S)-7-(3,4-dimethoxyphenyl)-N-(4-((3-methyl-1-(4-methylpiperazin-1-yl)-1-oxobutan-2-yl)carbamoyl)phenyl) pyrazolo[1,5-a]pyrimidine-2-carboxamide] are under 0.1 µg/mL, under 200 nM and under 200 nM.
For the molecule `COc1ccc(-c2ccnc3cc(C(=O)Nc4ccc(N(C)C)cc4)nn23)cc1OC` [Compound 276, 7-(3,4-dimethoxyphenyl)-N-(4-(dimethylamino)phenyl)pyrazolo[1,5-a]pyrimidine-2-carboxamide], the solubility at 90 min in data set [1] is under 0.1 µg/mL. Also, the “Ratio of tear volume” value in the data set on C57BL/6 female mice turned out to be 1.21. Moreover, the EC50 on human wild type-CFTR [3] was under 200 nM.
Take `COc1ccc(-c2ccnc3cc(C(=O)Nc4ccc(C(=O)O)cc4Cl)nn23)cc1OC` [Compound 106, 3-chloro-4-(7-(3,4-dimethoxyphenyl)pyrazolo [1,5-a]pyrimidine-2-carboxamido)benzoic acid]: the solubility at 90 min in data set [1] was under 0.1 µg/mL. In addition, the figures for the EC50 at human wild type-CFTR [2] and at human wild type-CFTR [3] were at least 2000 nM and under 200 nM, respectively.
Turning to `COc1ccc(-c2ccnc3cc(C(=O)Nc4ccc(N5CCN(C(=O)OC(C)(C)C)CC5)cn4)nn23)cc1OC` [Compound 272, tert-butyl 4-(6-(7-(3,4-dimethoxyphenyl)pyrazolo [1,5-a]pyrimidine-2-carboxamido)pyridin-3-yl)piperazine-1-carboxylate], in data set [1], the solubility at 90 min is under 0.1 µg/mL. In the data set with C57BL/6 female mice, the “Ratio of tear volume” value turned out to be 1.14. In addition, the EC50 at human wild type-CFTR [3] is under 200 nM.
As for `COc1ccc(-c2ccnc3cc(C(=O)Nc4ccc(NC(=O)OC(C)(C)C)cc4)nn23)cc1OC` [Compound 256, tert-butyl (4-(7-(3,4-dimethoxyphenyl)pyrazolo [1,5-a]pyrimidine-2-carboxamido)phenyl) carbamate], the solubility at 90 min in data set [1] is under 0.1 µg/mL. In addition, the EC50 on human wild type-CFTR [2] and at human wild type-CFTR [3] was under 200 nM each time.
For the molecule `COC(=O)c1ccc2c(c1)CN(C(=O)c1cc3nccc(-c4ccc(OC)c(OC)c4)n3n1)CC2` [Compound 131, methyl 2-(7-(3,4-dimethoxyphenyl)pyrazolo [1,5-a]pyrimidine-2-carbonyl)-1,2,3,4-tetrahydroisoquinoline-7-carboxylate], the solubility at 90 min in data set [1] is under 0.1 µg/mL. Also, the EC50 at human wild type-CFTR [2] and on human wild type-CFTR [3] was under 200 nM in each case.
With `COc1ccc(-c2ccnc3cc(C(=O)Nc4ccc(C(=O)N5CCOCC5)cc4C)nn23)cc1OC` [Compound 127, 7-(3,4-dimethoxyphenyl)-N-(2-methyl-4-(morpholine-4-carbonyl)phenyl)pyrazolo[1,5-a] pyrimidine-2-carboxamide], the solubility at 90 min in data set [1] was under 0.1 µg/mL. Further, the EC50 on human wild type-CFTR [2] and at human wild type-CFTR [3] was 200 to 2000 nM in each case.
